Data published in US20260042734A1, “HETEROCYCLIC RING-SUBSTITUTED AROMATIC COMPOUND, PREPARATION METHOD THEREFOR, AND USE THEREOF” (SHANGHAI HENLIUS BIOTECH, INC., priority 2023, published 2026).

Biological target: human Kv1.3 (hKv1.3) channels (Homo sapiens (Human), UniProt P22001)
Assay: Electrophysiological (whole-cell patch clamp) determination of inhibitory activity on Kv1.3 channels
Format: cell-based
Details: HEK293T cells expressing hKv1.3; for inhibition at 0.01 µM: HEK-293T, read-out: 10 nM inhibition rate (Kv1.3)
Experimental: Test Example 1: Determination of Inhibitory Activity of Compounds on Kv1.3 (hKv1.3) Channels
Electrophysiological Testing
Potassium currents were measured using HEK293T cells expressing human Kv1.3 (hKv1.3) channels.
Prior to the start of electrophysiological experiments, Kv1.3 cell lines should be maintained within 70% of the maximum density in the logarithmic growth phase. All reagents should be pre-warmed to 37° C. before use. • 1) Aspirate the spent medium from the 6 cm culture dish. • 2) Add 1 mL of PBS, gently rock the dish to rinse the bottom, and then remove the PBS. • 3) Add 1 mL of trypsin, and gently rock the dish to ensure the trypsin covers all the cells. • 4) Incubate at 37° C. for 2-3 minutes, and then gently pipette the cells to suspend the adherent cells. • 5) Transfer the cell suspension to a new centrifuge tube and centrifuge at 1000 rpm for 5 minutes. Adjust the cell concentration to 2×10^3 cells/mL, and then seed 300 μL of the cell suspension into each well of a 24-well plate containing cell climbing slides. Perform patch clamp experiments after the cells adhered properly.
The intracellular and extracellular solutions used were designed to mimic the cell physiological ionic composition.
Kv1.3 extracellular solution: 137 mM NaCl, 1 mM MgCl2·6H2O, 4 mM KCl, 1.8 mM CaCl2·2H2O, 10 mM D-Glucose, 10 mM HEPES, pH adjusted to 7.4 with NaOH.
Kv1.3 intracellular solution: 140 mM KCl, 10 mM EGTA, 5 mM MgCl2·6H2O, 10 mM HEPES, […], pH adjusted to 7.2 with KOH.
Test Compound Dissolution
• 1) The test compound was dissolved in DMSO to prepare a 30 mM stock solution. • 2) The stock solution of the test compound was serially diluted with DMSO to obtain secondary stock solutions at concentrations of 300 μM, 100 μM, 30 μM, 10 μM, and 3 μM. • 3) 10 μL of each secondary stock solution was diluted into 10 mL of extracellular solution to achieve final concentrations of 300 nM, 100 nM, 30 nM, 10 nM, and 3 nM for electrophysiological testing.
Kv1.3 potassium current data were collected and stored on a computer using Patchmaster software via an EPC-10 amplifier. • 1) The cell climbing slide was removed from the cell culture dish using forceps, immersed with extracellular solution, and placed into the bath chamber on the stage of an inverted microscope. • 2) Glass micropipettes were pulled using a P-1000 micropipette puller, filled one-third of their volume with intracellular solution, and then mounted onto an electrode holder. • 3) Using a motorized micromanipulator (Scientifica-Double 1U), the recording electrode was brought into contact with the cell surface. […] The positive pressure was removed, and a negative pressure of 0.5 cm H2O was applied. It was observed that the sealing resistance increased rapidly until it reached the gigaseal. When the sealing resistance between the recording electrode and the cell membrane was >1 GΩ, negative pressure was applied to rupture the membrane to form the whole-cell recording mode. After the ruptured membrane stabilized, the membrane capacitance (Cs) and series resistance (Rs) were compensated. • 4) Stimulation procedure: the cell was voltage-clamped at −80 mV, depolarized to 40 mV for a duration of 200 ms, and then repolarized to −80 mV. Currents were recorded every 10 s. • 5) Kv1.3 potassium channel currents were recorded at room temperature prior to drug application. After the control current value reached a steady state (indicated by overlapping of the four most consecutive current traces), cumulative drug application was performed. The negative control (0.1% DMSO) was applied first, followed by […] of the drugs.
Raw Kv1.3 current peak data were extracted from PatchMaster software. The current inhibition rate was calculated as follows: Peak current inhibition rate=((1−(Peak current compound)/(Peak current vehicle))). […]

[1] = compound concentration 10 nM, peak current inhibition

Chain of human Kv1.3 (hKv1.3) channels (P22001 whole entry): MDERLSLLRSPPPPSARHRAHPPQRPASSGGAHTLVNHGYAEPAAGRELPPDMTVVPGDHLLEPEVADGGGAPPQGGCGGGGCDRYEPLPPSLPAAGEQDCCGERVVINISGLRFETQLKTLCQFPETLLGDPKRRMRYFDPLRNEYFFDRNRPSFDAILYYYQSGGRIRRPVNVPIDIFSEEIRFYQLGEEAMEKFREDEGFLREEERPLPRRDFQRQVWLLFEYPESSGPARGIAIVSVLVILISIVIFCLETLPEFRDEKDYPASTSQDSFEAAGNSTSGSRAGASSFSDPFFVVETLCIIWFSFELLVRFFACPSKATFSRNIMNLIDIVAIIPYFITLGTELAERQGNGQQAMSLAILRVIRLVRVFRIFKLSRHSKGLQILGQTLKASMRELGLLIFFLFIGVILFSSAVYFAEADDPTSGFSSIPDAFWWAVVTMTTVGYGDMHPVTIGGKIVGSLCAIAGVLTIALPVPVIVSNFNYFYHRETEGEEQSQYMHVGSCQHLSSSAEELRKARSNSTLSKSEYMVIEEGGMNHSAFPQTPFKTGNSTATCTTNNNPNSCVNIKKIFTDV

| Compound | inhibition at 0.01 µM [1] | other results |
| --- | --- | --- |
| 4-(2,3-Dichloro-6-hydroxyphenyl)-1-(2,2-difluoro-3-hydroxypropyl)pyrrolidine-2-thione [Compound 121] |  | 10 nM inhibition rate (Kv1.3) [1]: A (A = inhibition ≥75%) |
| OCCCN1CC(c2c(O)ccc(Cl)c2Cl)CC1=S (racemic) [Compound 1, rac-4-(2,3-Dichloro-6-hydroxyphenyl)-1-(3-hydroxypropyl)pyrrolidine-2-thione] | 25 to 50% |  |
| NCCCN1CC(c2c(O)ccc(Cl)c2Cl)CC1=S (racemic) [Compound 2, rac-1-(3-Aminopropyl)-4-(2,3-dichloro-6-hydroxyphenyl)pyrrolidine-2-thione] | 50 to 75% |  |
| ONCCCN1CC(c2c(O)ccc(Cl)c2Cl)CC1=S (racemic) [Compound 26, rac-4-(2,3-Dichloro-6-hydroxyphenyl)-1-(3-(hydroxyamino)propyl)pyrrolidine-2-thione] | 0 to 5% |  |
| Oc1ccc(Cl)c(Cl)c1C1CC(=S)N(C2CC3(CNC3)C2)C1 (racemic) [Compound 34, rac-4-(2,3-Dichloro-6-hydroxyphenyl)-1-(2-azaspiro[3.3]heptan-6-yl)pyrrolidine-2-thione] | 25 to 50% |  |
| Oc1ccc(Cl)c(Cl)c1C1CC(=S)N(CCn2cccn2)C1 (racemic) [Compound 37, rac-1-(2-(1H-Pyrazol-1-yl)ethyl)-4-(2,3-dichloro-6-hydroxyphenyl)pyrrolidine-2-thione] | < 0% |  |
| Cn1cc(N2CC(c3c(O)ccc(Cl)c3Cl)CC2=S)cn1 (racemic) [Compound 40, 4-(2,3-dichloro-6-hydroxyphenyl)-1-(1-methyl-1H-pyrazol-4-yl)pyrrolidine-2-thione] | 50 to 75% |  |
| C=Cn1cc(N2CC(c3c(O)ccc(Cl)c3Cl)CC2=S)cn1 (racemic) [Compound 66, rac-4-(2,3-dichloro-6-hydroxyphenyl)-1-(1-vinyl-1H-pyrazol-4-yl)pyrrolidine-2-thione] | 25 to 50% |  |
| CS(=O)(=O)n1cc(N2CC(c3c(O)ccc(Cl)c3Cl)CC2=S)cn1 (racemic) [Compound 68, rac-4-(2,3-dichloro-6-hydroxyphenyl)-1-(1-(methylsulfonyl)-1H-pyrazol-4-yl)pyrrolidine-2-thione] | 25 to 50% |  |
| CS(=O)(=O)n1cc(N2CC(c3c(O)ccc(Cl)c3Cl)CC2=O)cn1 (racemic) [Compound 92, 4-(2,3-Dichloro-6-hydroxyphenyl)-1-(1-(methylsulfonyl)-1H-pyrazol-4-yl)pyrrolidin-2-one] | 50 to 75% |  |
| O=C1CC(c2c(O)ccc(Cl)c2Cl)CN1CCCNO (racemic) [Compound 103, 4-(2,3-Dichloro-6-hydroxyphenyl)-1-(3-(hydroxyamino)propyl)pyrrolidin-2-one] | ≥ 75% |  |
| Oc1ccc(Cl)c(Cl)c1C1CC(=S)N([C@H]2C[C@H](O)C2)C1 (mixture of isomers) [Compound 124, rac-4-(2,3-dichloro-6-hydroxyphenyl)-1-((1r,3r)-3-hydroxycyclobutyl)pyrrolidine-2-thione] | 25 to 50% |  |
| OCC1(CN2CC(c3c(O)ccc(Cl)c3Cl)CC2=S)CC1 (racemic) [Compound 125, rac-4-(2,3-Dichloro-6-hydroxyphenyl)-1-((1-(hydroxymethyl)cyclopropyl)methyl)pyrrolidine-2-thione] | 0 to 5% |  |
| OC[C@H]1C[C@H](N2CC(c3c(O)ccc(Cl)c3Cl)CC2=S)C1 (mixture of isomers) [Compound 126, rac-4-(2,3-dichloro-6-hydroxyphenyl)-1-((1r,3r)-3-(hydroxymethyl)cyclobutyl)pyrrolidine-2-thione] | 0 to 5% |  |
| OC[C@H]1C[C@@H](N2CC(c3c(O)ccc(Cl)c3Cl)CC2=S)C1 (mixture of isomers) [Compound 127, rac-4-(2,3-dichloro-6-hydroxyphenyl)-1-((1s,3s)-3-(hydroxymethyl)cyclobutyl)pyrrolidine-2-thione] | 0 to 5% |  |
| Oc1ccc(Cl)c(Cl)c1C1CC(=S)N(C[C@H]2C[C@@H](O)C2)C1 (mixture of isomers) [Compound 128, rac-4-(2,3-dichloro-6-hydroxyphenyl)-1-(((1s,3s)-3-hydroxycyclobutyl)methyl)pyrrolidine-2-thione] | 0 to 5% |  |
| Oc1ccc(Cl)c(Cl)c1C1CC(=S)N(C[C@H]2C[C@H](O)C2)C1 (mixture of isomers) [Compound 129, rac-4-(2,3-dichloro-6-hydroxyphenyl)-1-(((1r,3r)-3-hydroxycyclobutyl)methyl)pyrrolidine-2-thione] | 0 to 5% |  |
| OCCCCN1CC(c2c(O)ccc(Cl)c2Cl)CC1=S (racemic) [Compound 130, rac-4-(2,3-dichloro-6-hydroxyphenyl)-1-(4-hydroxybutyl)pyrrolidine-2-thione] | 25 to 50% |  |
| OC[C@@H](O)CN1CC(c2c(O)ccc(Cl)c2Cl)CC1=S (mixture of isomers) [Compound 131, rac-4-(2,3-dichloro-6-hydroxyphenyl)-1-((S)-2,3-dihydroxypropyl)pyrrolidine-2-thione] | 50 to 75% | IC50 (Hill fit of peak current inhibition): 0.03 to 0.1 µM |
| OCCCN1CC(c2c(O)ccc(F)c2Cl)CC1=S (racemic) [Compound 148, rac-4-(2-chloro-3-fluoro-6-hydroxyphenyl)-1-(3-hydroxypropyl)pyrrolidine-2-thione] | 0 to 5% |  |
| OCCCN1CC(c2c(O)ccc(Cl)c2F)CC1=S (racemic) [Compound 149, rac-4-(3-chloro-2-fluoro-6-hydroxyphenyl)-1-(3-hydroxypropyl)pyrrolidine-2-thione] | < 0% |  |
| Oc1ccc(Cl)c(Cl)c1C1CC(=S)N(c2cnn(C3CC3)c2)C1 (racemic) [Compound 150, rac-1-(1-cyclopropyl-1H-pyrazol-4-yl)-4-(2,3-dichloro-6-hydroxyphenyl)pyrrolidine-2-thione] | 50 to 75% |  |
| Oc1ccc(Cl)c(Cl)c1C1CC(=S)N(c2cnn3c2CCC3)C1 (racemic) [Compound 159, rac-4-(2,3-dichloro-6-hydroxyphenyl)-1-(5,6-dihydro-4H-pyrrolo[1,2-b]pyrazol-3-yl)pyrrolidine-2-thione] | 25 to 50% |  |
| O=C1CC(c2c(O)ccc(Cl)c2Cl)CN1c1cnn2c1CCC2 (racemic) [Compound 160, rac-4-(2,3-dichloro-6-hydroxyphenyl)-1-(5,6-dihydro-4H-pyrrolo[1,2-b]pyrazol-3-yl)pyrrolidin-2-one] | 25 to 50% |  |
| Oc1ccc(Cl)c(Cl)c1C1CC(=S)N(c2cnn3c2OCC3)C1 (racemic) [Compound 161, rac-4-(2,3-dichloro-6-hydroxyphenyl)-1-(2,3-dihydropyrazolo[5,1-b]oxazol-7-yl)pyrrolidine-2-thione] | 50 to 75% |  |
| Oc1ccc(Cl)c(Cl)c1C1CC(=S)N(c2cnn3c2OCCC3)C1 (racemic) [Compound 162, rac-4-(2,3-dichloro-6-hydroxyphenyl)-1-(6,7-dihydro-5H-pyrazolo[5,1-b][1,3]oxazin-3-yl)pyrrolidine-2-thione] | 0 to 5% |  |
| Oc1ccc(Cl)c(Cl)c1C1CC(=S)N(c2cnn3c2COCC3)C1 (racemic) [Compound 163, rac-4-(2,3-dichloro-6-hydroxyphenyl)-1-(6,7-dihydro-4H-pyrazolo[5,1-c][1,4]oxazin-3-yl)pyrrolidine-2-thione] | 25 to 50% |  |
| Oc1ccc(Cl)c(Cl)c1C1CC(=S)N(c2cnn(C3COC3)c2)C1 (racemic) [Compound 164, rac-4-(2,3-dichloro-6-hydroxyphenyl)-1-(1-(oxetan-3-yl)-1H-pyrazol-4-yl)pyrrolidine-2-thione] | 50 to 75% |  |
